Test results from patent US10168342B2, “Lipid probes and uses thereof” (THE SCRIPPS RESEARCH INSTITUTE, priority 2015, dated 2019).
Where two headings read alike, the source gives them in different places.

Legend:
[1] = test system: AEA-DA lipid probe targets in Neuro2a cells; details: for SILAC ratio, GM20425 (E9Q035): AEA-DA probe
[2] = target: T1, AEA-DA lipid probe targets in Neuro2a cells (Mus musculus, UniProt Q9CQF9)
T1 sequence (Q9CQF9 29-505): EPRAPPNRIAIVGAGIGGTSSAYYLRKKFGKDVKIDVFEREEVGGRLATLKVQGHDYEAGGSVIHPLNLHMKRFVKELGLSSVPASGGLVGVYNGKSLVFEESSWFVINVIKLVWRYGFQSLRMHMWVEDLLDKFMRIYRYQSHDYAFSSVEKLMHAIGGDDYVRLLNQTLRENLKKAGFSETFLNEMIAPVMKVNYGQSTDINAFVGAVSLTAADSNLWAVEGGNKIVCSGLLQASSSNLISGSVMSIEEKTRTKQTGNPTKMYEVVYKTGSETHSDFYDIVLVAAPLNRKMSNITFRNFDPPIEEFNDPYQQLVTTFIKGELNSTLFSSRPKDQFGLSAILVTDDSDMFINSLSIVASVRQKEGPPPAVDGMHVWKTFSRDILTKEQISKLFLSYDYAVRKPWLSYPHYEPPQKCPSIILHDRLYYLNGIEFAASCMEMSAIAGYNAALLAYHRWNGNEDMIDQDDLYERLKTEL

[3] = target: T2, AEA-DA lipid probe targets in Neuro2a cells (Mus musculus, UniProt Q9CPQ8)
T2 sequence (Q9CPQ8 1-103): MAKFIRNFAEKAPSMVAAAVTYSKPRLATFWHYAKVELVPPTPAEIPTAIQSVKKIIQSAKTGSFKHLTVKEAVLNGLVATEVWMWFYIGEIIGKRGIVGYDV

[4] = target: T3, AEA-DA lipid probe targets in Neuro2a cells (Mus musculus, UniProt Q8BIJ6); details: protein Iars2, Neuro2a cells
T3 sequence (Q8BIJ6 49-1012): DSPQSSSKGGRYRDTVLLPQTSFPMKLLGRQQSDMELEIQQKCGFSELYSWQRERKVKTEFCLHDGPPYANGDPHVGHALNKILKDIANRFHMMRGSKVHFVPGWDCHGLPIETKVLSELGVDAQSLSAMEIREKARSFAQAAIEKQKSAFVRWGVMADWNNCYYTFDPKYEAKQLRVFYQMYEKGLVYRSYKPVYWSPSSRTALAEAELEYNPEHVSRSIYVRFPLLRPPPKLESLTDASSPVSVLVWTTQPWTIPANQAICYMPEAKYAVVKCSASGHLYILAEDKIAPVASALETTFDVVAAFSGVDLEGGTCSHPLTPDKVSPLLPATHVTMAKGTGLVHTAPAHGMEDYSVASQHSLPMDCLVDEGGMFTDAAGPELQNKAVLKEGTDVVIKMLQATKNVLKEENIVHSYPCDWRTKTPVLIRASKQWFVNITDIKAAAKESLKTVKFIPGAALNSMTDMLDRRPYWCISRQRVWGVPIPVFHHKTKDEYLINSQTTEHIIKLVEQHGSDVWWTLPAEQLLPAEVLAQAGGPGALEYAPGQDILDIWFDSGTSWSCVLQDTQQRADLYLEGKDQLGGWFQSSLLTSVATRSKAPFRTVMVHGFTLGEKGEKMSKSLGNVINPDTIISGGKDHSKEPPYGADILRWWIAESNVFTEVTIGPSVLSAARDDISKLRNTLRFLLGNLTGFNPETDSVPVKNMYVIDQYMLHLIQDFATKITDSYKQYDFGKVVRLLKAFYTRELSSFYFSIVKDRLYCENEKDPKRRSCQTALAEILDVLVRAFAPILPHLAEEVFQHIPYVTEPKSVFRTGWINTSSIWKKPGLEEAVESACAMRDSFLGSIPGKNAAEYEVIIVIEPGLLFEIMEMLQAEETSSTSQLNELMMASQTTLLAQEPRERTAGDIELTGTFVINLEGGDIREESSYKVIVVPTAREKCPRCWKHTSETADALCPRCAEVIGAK

[5] = target: T4, AEA-DA lipid probe targets in Neuro2a cells (Mus musculus, UniProt Q3UEB3)
T4 sequence (Q3UEB3 1-564): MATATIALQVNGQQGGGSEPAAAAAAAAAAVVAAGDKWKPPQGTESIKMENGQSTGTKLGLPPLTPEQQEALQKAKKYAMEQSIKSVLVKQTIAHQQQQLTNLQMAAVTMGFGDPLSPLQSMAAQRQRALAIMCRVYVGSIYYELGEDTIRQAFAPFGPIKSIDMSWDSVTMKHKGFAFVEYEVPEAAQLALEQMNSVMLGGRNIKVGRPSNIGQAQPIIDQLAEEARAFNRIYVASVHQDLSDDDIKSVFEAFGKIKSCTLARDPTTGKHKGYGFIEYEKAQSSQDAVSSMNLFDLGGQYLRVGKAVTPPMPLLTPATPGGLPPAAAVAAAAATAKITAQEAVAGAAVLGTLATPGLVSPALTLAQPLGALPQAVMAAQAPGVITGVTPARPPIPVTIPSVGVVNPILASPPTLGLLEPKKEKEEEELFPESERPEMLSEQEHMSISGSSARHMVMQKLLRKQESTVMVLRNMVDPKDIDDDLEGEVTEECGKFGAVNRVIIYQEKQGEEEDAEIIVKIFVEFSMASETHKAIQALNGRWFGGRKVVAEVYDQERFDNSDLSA

[6] = target: AEA-DA lipid probe targets in Neuro2a cells (Mus musculus, UniProt Q6PA06)
Sequence of AEA-DA lipid probe targets in Neuro2a cells (Mus musculus, UniProt Q6PA06) (Q6PA06 whole entry): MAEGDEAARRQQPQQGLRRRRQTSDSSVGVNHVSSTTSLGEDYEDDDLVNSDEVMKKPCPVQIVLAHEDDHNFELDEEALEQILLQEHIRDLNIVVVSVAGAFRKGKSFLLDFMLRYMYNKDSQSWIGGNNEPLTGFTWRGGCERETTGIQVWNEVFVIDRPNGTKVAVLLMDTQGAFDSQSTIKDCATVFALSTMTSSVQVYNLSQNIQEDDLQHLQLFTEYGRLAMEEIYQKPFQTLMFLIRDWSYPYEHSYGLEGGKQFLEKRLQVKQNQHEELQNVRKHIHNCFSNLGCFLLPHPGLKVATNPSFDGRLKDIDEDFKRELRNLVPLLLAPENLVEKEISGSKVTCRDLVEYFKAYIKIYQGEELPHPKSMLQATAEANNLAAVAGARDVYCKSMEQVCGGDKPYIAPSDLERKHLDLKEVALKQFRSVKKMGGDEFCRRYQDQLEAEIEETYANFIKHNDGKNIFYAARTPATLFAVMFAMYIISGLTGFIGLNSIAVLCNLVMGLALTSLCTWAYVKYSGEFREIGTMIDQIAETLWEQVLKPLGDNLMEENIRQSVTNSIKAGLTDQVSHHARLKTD

[7] = target: T5, AEA-DA lipid probe targets in Neuro2a cells (Mus musculus, UniProt D3YZZ5)
T5 sequence (D3YZZ5 35-224): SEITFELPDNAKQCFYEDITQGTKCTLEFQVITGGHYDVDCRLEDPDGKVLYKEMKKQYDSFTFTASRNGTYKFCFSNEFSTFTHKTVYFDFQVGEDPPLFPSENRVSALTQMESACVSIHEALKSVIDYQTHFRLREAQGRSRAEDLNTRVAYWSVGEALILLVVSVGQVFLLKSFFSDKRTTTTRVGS

[8] = Neuro2a cells, competitor 25 μM
[9] = competitor 25 μM, first Tmpo line (r51)
[10] = competitor 25 μM, second Tmpo line (r55)

Structure (SMILES): CCCCC/C=C\C/C=C\C/C=C\C/C=C\CCCC(=O)NCCO [AEA, anandamide, reference compound]
- competition of AEA-DA labeling by lipid competitor ([1]; Neuro2a cells, 200 μM): competed with several targets
- SILAC ratio, GM20425 (E9Q035) ([1]; Neuro2a cells, competitor 200 μM): 2.3
- SILAC ratio Akr1c12 ([1]; competitor 200 μM): 1.8
- SILAC ratio Uncharacterized ([1]; competitor 200 μM): 1.7
- SILAC ratio, Akr1b10 ([1]; competitor 200 μM): 4.5
- SILAC ratio, Gm20425 ([1]; competitor 200 μM): 2.3
- SILAC ratio, Gm20671 ([1]; competitor 200 μM): 1.8
- SILAC ratio, Tmpo ([1]; competitor 200 μM, first Tmpo line (r51)): 2.0
- SILAC ratio, Tmpo ([1]; competitor 200 μM, second Tmpo line (r55)): 1.9
- SILAC ratio, Pcyox1 ([2]; competitor 200 μM): 1.7
- SILAC ratio Atp5l ([3]; competitor 200 μM): 1.3
- SILAC ratio (AEA-DA competition) ([4]; competitor 200 μM): 0.9
- SILAC ratio Puf60 ([5]; competitor 200 μM): 1.3
- SILAC ratio, Atl2 ([6]; competitor 200 μM): 2.0
- SILAC ratio, Tmed7 ([7]; competitor 200 μM): 1.5

Structure (SMILES): O=C(/C=C/c1cccnc1)NCCCCC1CCN(C(=O)c2ccccc2)CC1 [FK-866, reference compound]
- competition of probe labeling of NAMPT and ABCB1B ([1]; Neuro2a cells, AEA-DA 5 μM, drug 25 μM): competed probe-labeling
- SILAC ratio, GM20425 (E9Q035) [1, 8]: 1.2
- SILAC ratio Akr1c12 ([1]; competitor 25 μM): 1.3
- SILAC ratio H2-K1 ([1]; competitor 25 μM): 1.0
- SILAC ratio Nup205 ([1]; competitor 25 μM): 0.9
- SILAC ratio Uncharacterized ([1]; competitor 25 μM): 1.3
- SILAC ratio, Gm20425 ([1]; competitor 25 μM): 1.2
- SILAC ratio, Tmpo [1, 9]: 1.0
- SILAC ratio, Tmpo [1, 10]: 1.1
- SILAC ratio, Pcyox1 ([2]; competitor 25 μM): 1.2
- SILAC ratio Atp5l ([3]; competitor 25 μM): 1.1
- SILAC ratio Puf60 ([5]; competitor 25 μM): 1.3
- SILAC ratio, Atl2 ([6]; competitor 25 μM): 1.1
- SILAC ratio, Tmed7 ([7]; competitor 25 μM): 1.1

Structure (SMILES): CN1CCN(C(=O)c2c(-c3ccccc3)c3cc([N+](=O)[O-])ccc3n2C)CC1 [KML110, (1-Methyl-5-nitro-3-phenyl-1H-indol-2-yl)(4-methylpiperazin-1-yl)methanone]
- SILAC ratio Akr1c12 ([1]; competitor 25 μM): 1.2
- SILAC ratio H2-K1 ([1]; competitor 25 μM): 1.6
- SILAC ratio Nup205 ([1]; competitor 25 μM): 1.2
- SILAC ratio Uncharacterized ([1]; competitor 25 μM): 1.1
- SILAC ratio, Gm20425 ([1]; competitor 25 μM): 1.5
- SILAC ratio, Gm20671 ([1]; competitor 25 μM): 1.4
- SILAC ratio, Tmpo [1, 9]: 1.5
- SILAC ratio, Tmpo [1, 10]: 1.5
- SILAC ratio, Pcyox1 ([2]; competitor 25 μM): 1.5
- SILAC ratio Atp5l ([3]; competitor 25 μM): 1.2
- SILAC ratio Puf60 ([5]; competitor 25 μM): 1.3
- SILAC ratio, Atl2 ([6]; competitor 25 μM): 1.3
- SILAC ratio, Tmed7 ([7]; competitor 25 μM): 1.6

Structure (SMILES): CN1CCN(C(=O)c2[nH]c3ccc([N+](=O)[O-])cc3c2-c2ccccc2)CC1 [MJN228, (4-Methylpiperazin-1-yl)(5-nitro-3-phenyl-1H-indol-2-yl)methanone]
- SILAC ratio, GM20425 (E9Q035) [1, 8]: 1.7
- SILAC ratio Nup205 ([1]; competitor 10 μM): 1.0
- SILAC ratio Uncharacterized ([1]; competitor 10 μM): 1.1
- SILAC ratio, Akr1b10 ([1]; competitor 10 μM): 2.1
- SILAC ratio, Gm20425 ([1]; competitor 10 μM): 1.3
- SILAC ratio, Tmpo ([1]; competitor 10 μM, first Tmpo line (r51)): 1.1
- SILAC ratio, Tmpo ([1]; competitor 10 μM, second Tmpo line (r55)): 1.1
- SILAC ratio H2-K1 ([1]; competitor 25 μM): 1.1
- SILAC ratio Nup205 ([1]; competitor 25 μM): 1.2
- SILAC ratio Uncharacterized ([1]; competitor 25 μM): 1.6
- SILAC ratio, Gm20425 ([1]; competitor 25 μM): 1.7
- SILAC ratio, Gm20671 ([1]; competitor 25 μM): 1.4
- SILAC ratio, Tmpo [1, 9]: 1.4
- SILAC ratio, Tmpo [1, 10]: 1.4
- SILAC ratio Nup205 ([1]; competitor 50 μM): 1.1
- SILAC ratio, Akr1b10 ([1]; competitor 50 μM): 2.6
- SILAC ratio, Gm20425 ([1]; competitor 50 μM): 1.7
- SILAC ratio, Tmpo ([1]; competitor 50 μM, first Tmpo line (r51)): 1.4
- SILAC ratio, Tmpo ([1]; competitor 50 μM, second Tmpo line (r55)): 1.3
- SILAC ratio Nup205 ([1]; competitor 100 μM): 1.2
- SILAC ratio Uncharacterized ([1]; competitor 100 μM): 3.0
- SILAC ratio, Akr1b10 ([1]; competitor 100 μM): 3.2
- SILAC ratio, Gm20425 ([1]; competitor 100 μM): 2.9
- SILAC ratio, Tmpo ([1]; competitor 100 μM, first Tmpo line (r51)): 2.1
- SILAC ratio, Tmpo ([1]; competitor 100 μM, second Tmpo line (r55)): 2.0
- SILAC ratio, Pcyox1 ([2]; competitor 10 μM): 1.2
- SILAC ratio, Pcyox1 ([2]; competitor 25 μM): 1.4
- SILAC ratio, Pcyox1 ([2]; competitor 50 μM): 1.6
- SILAC ratio, Pcyox1 ([2]; competitor 100 μM): 2.2
- SILAC ratio Atp5l ([3]; competitor 10 μM): 1.5
- SILAC ratio Atp5l ([3]; competitor 25 μM): 1.5
- SILAC ratio Atp5l ([3]; competitor 50 μM): 1.4
- SILAC ratio Atp5l ([3]; competitor 100 μM): 1.3
- SILAC ratio (AEA-DA competition) ([4]; competitor 10 μM): 0.8
- SILAC ratio (AEA-DA competition) ([4]; competitor 25 μM): 1.0
- SILAC ratio (AEA-DA competition) ([4]; competitor 50 μM): 0.7
- SILAC ratio Puf60 ([5]; competitor 10 μM): 1.4
- SILAC ratio Puf60 ([5]; competitor 25 μM): 1.2
- SILAC ratio Puf60 ([5]; competitor 50 μM): 1.0
- SILAC ratio Puf60 ([5]; competitor 100 μM): 1.2
- SILAC ratio, Atl2 ([6]; competitor 10 μM): 1.1
- SILAC ratio, Atl2 ([6]; competitor 25 μM): 1.4
- SILAC ratio, Atl2 ([6]; competitor 50 μM): 1.6
- SILAC ratio, Tmed7 ([7]; competitor 10 μM): 1.0
- SILAC ratio, Tmed7 ([7]; competitor 25 μM): 1.5
- SILAC ratio, Tmed7 ([7]; competitor 100 μM): 2.1

Structure (SMILES): C=CCN(C)CCCCCCOc1ccc(C(=O)c2ccc(Br)cc2)c(F)c1 [Ro 48-8071, reference compound]
- SILAC ratio, GM20425 (E9Q035) [1, 8]: 1.2
- SILAC ratio Akr1c12 ([1]; competitor 25 μM): 0.9
- SILAC ratio H2-K1 ([1]; competitor 25 μM): 0.9
- SILAC ratio Nup205 ([1]; competitor 25 μM): 0.9
- SILAC ratio Uncharacterized ([1]; competitor 25 μM): 1.0
- SILAC ratio, Gm20425 ([1]; competitor 25 μM): 1.2
- SILAC ratio, Gm20671 ([1]; competitor 25 μM): 1.3
- SILAC ratio, Tmpo [1, 9]: 1.2
- SILAC ratio, Tmpo [1, 10]: 1.2
- SILAC ratio, Pcyox1 ([2]; competitor 25 μM): 1.8
- SILAC ratio Atp5l ([3]; competitor 25 μM): 1.0
- SILAC ratio (AEA-DA competition) ([4]; competitor 25 μM): 0.7
- SILAC ratio Puf60 ([5]; competitor 25 μM): 1.0
- SILAC ratio, Atl2 ([6]; competitor 25 μM): 1.2
- SILAC ratio, Tmed7 ([7]; competitor 25 μM): 1.1
